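Tested at 5 concentrations; 48 h exposure; 96-well plates; endpoints linearly interpolated, else capped at highest concentration. Abbreviation: GI50, concentration required for 50% inhibition of growth.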 Calls of active or inactive are those of the source. Cut-off read from the data, not from the text of the source: active = GI50 up to about 1.1 µM and inactive = higher.
How the values were obtained:
Assay in all cases: growth of human tumour cells (NCI), 48 h
ACHN = test system: ACHN
HT-29 = test system: HT-29
TK-10 = test system: TK-10
SK-MEL-28 = test system: SK-MEL-28
SN12C = test system: SN12C
HCT-15 = test system: HCT-15
SNB-75 = test system: SNB-75
CAKI-1 = test system: CAKI-1
MOLT-4 = test system: MOLT-4
A498 = test system: A498
HL-60 = test system: HL-60
OVCAR-5 = test system: OVCAR-5
SF-268 = test system: SF-268
NCI-H226 = test system: NCI-H226
M14 = test system: M14
NCI-H522 = test system: NCI-H522
EKVX = test system: EKVX
A549 = test system: A549
PC-3 = test system: PC-3
Malme-3M = test system: Malme-3M

Structure (SMILES)	GI50 (ACHN)	GI50 (HT-29)	GI50 (TK-10)	GI50 (SK-MEL-28)	GI50 (SN12C)	GI50 (HCT-15)	GI50 (SNB-75)	GI50 (CAKI-1)	GI50 (MOLT-4)	GI50 (A498)	GI50 (HL-60)	GI50 (OVCAR-5)	GI50 (SF-268)	GI50 (NCI-H226)	GI50 (M14)	GI50 (NCI-H522)	GI50 (EKVX)	GI50 (A549)	GI50 (PC-3)	GI50 (Malme-3M)
COc1ccc(CCCCl)c(C2=NCCc3cc(OC)c(OC)cc32)c1	68.1 µM (inactive)	36.1 µM (inactive)	> 100 µM (inactive)	63.2 µM (inactive)	54.3 µM (inactive)	71.1 µM	42.3 µM (inactive)	39.7 µM (inactive)	41.6 µM (inactive)	> 100 µM (inactive)	27.5 µM (inactive)	> 100 µM (inactive)	49.3 µM (inactive)	27.9 µM (inactive)	43.9 µM (inactive)	28.8 µM (inactive)	53.6 µM (inactive)	69.7 µM (inactive)	35.3 µM (inactive)	
CCOC(=O)CCC(C(=O)OCC)n1nc2ccc(Nc3c(C)[n+]([O-])c4cc(Cl)ccc4[n+]3[O-])cc2n1 (stereo not given)	> 100 µM (inactive)	64.9 µM (inactive)	> 100 µM (inactive)		73.3 µM (inactive)	88.1 µM	> 100 µM (inactive)	61.7 µM (inactive)	32.3 µM (inactive)	> 100 µM (inactive)	96.8 µM (inactive)	> 100 µM (inactive)	39.1 µM (inactive)	62.4 µM (inactive)	> 100 µM (inactive)	40 µM (inactive)	32.2 µM (inactive)	> 100 µM (inactive)	76.7 µM (inactive)	> 100 µM (inactive)
CC1=C(C(=O)NCCCN(CCO)CCO)CC(C(=O)NCCCN(CCO)CCO)=C(C)N1	97.1 µM (inactive)	> 100 µM (inactive)	> 100 µM (inactive)		> 100 µM (inactive)	> 100 µM	15.2 µM (inactive)	> 100 µM (inactive)	> 100 µM (inactive)	27.4 µM (inactive)	> 100 µM (inactive)	> 100 µM (inactive)	34.8 µM (inactive)	> 100 µM (inactive)	> 100 µM (inactive)	98.9 µM (inactive)	> 100 µM (inactive)	> 100 µM (inactive)	59.8 µM (inactive)	
Cc1ccc(Cl)c2c1NC(=O)/C2=N\Nc1ccccc1[N+](=O)[O-]	76.7 µM (inactive)	35.8 µM (inactive)	> 100 µM (inactive)	> 100 µM (inactive)	> 100 µM (inactive)	37.8 µM	54.5 µM (inactive)	> 100 µM (inactive)	37.3 µM (inactive)	> 100 µM (inactive)	25.5 µM (inactive)	> 100 µM (inactive)	45.8 µM (inactive)	> 100 µM (inactive)	42.6 µM (inactive)		40.2 µM (inactive)	83 µM (inactive)	27.7 µM (inactive)	42.7 µM (inactive)
CCOC(=O)Cc1nc2c(N)ncnc2n1C1OC(COC(C)=O)C(OC(C)=O)C1OC(C)=O (stereo not given)	> 100 µM (inactive)	> 100 µM (inactive)	> 100 µM (inactive)	> 100 µM (inactive)	> 100 µM (inactive)	> 100 µM		> 100 µM (inactive)	> 100 µM (inactive)	> 100 µM (inactive)	> 100 µM (inactive)		> 100 µM (inactive)	> 100 µM (inactive)	> 100 µM (inactive)	> 100 µM (inactive)	> 100 µM (inactive)	> 100 µM (inactive)	> 100 µM (inactive)	> 100 µM (inactive)
CC1=C2C3=C(C)C(=O)C(C)(C)CC[C@@]3(C)[C@]2(C)CCC(C)(C)C1=O	> 100 µM (inactive)	> 100 µM (inactive)	> 100 µM (inactive)		> 100 µM (inactive)	> 100 µM	> 100 µM (inactive)	> 100 µM (inactive)	> 100 µM (inactive)	> 100 µM (inactive)	> 100 µM (inactive)	> 100 µM (inactive)	> 100 µM (inactive)	> 100 µM (inactive)	> 100 µM (inactive)	> 100 µM (inactive)	> 100 µM (inactive)	> 100 µM (inactive)	> 100 µM (inactive)	> 100 µM (inactive)
COC(=O)c1cc2c(cc1C(=O)OC)[C@@]1(C)CCCC(C)(C)C1CC2 (stereo not given in full)	20.7 µM (inactive)	15.6 µM (inactive)	19.5 µM (inactive)	26.3 µM (inactive)	19.3 µM (inactive)	17.1 µM	30 µM (inactive)		15.1 µM (inactive)	15.6 µM (inactive)	8.77 µM (inactive)	18.3 µM (inactive)	13.9 µM (inactive)	17.4 µM (inactive)	22.9 µM (inactive)	16.9 µM (inactive)	13.3 µM (inactive)	19.4 µM (inactive)	14.8 µM (inactive)	1.22 µM (inactive)
N#Cc1c(=O)c2cccnc2n2c1[nH]c1ccccc12	42.1 µM (inactive)	> 100 µM (inactive)	55.5 µM (inactive)	> 100 µM (inactive)	> 100 µM (inactive)	98.2 µM	50.5 µM (inactive)	> 100 µM (inactive)	> 100 µM (inactive)	77.3 µM (inactive)	> 100 µM (inactive)	> 100 µM (inactive)	49.1 µM (inactive)	66.5 µM (inactive)	90.2 µM (inactive)		85.9 µM (inactive)	> 100 µM (inactive)	> 100 µM (inactive)	
CCC(=O)Nc1ccc(NS(=O)(=O)c2ccc(Cl)cc2)cc1	> 100 µM (inactive)	> 100 µM (inactive)		> 100 µM (inactive)	> 100 µM (inactive)	> 100 µM	> 100 µM (inactive)	91.4 µM (inactive)	34.5 µM (inactive)	> 100 µM (inactive)	28.2 µM (inactive)	> 100 µM (inactive)	> 100 µM (inactive)	19.5 µM (inactive)	> 100 µM (inactive)	> 100 µM (inactive)	39.8 µM (inactive)	> 100 µM (inactive)	> 100 µM (inactive)	> 100 µM (inactive)
C=CCSC1=N/C(=C\c2ccco2)C(=O)N1CC=C	34.1 µM (inactive)	68.4 µM (inactive)	> 100 µM (inactive)	72.4 µM (inactive)	> 100 µM (inactive)	57.9 µM		70.6 µM (inactive)	25.9 µM (inactive)	27.2 µM (inactive)	26.8 µM (inactive)	> 100 µM (inactive)	> 100 µM (inactive)	34.4 µM (inactive)	> 100 µM (inactive)	43.9 µM (inactive)	40.3 µM (inactive)	79.1 µM (inactive)	46.7 µM (inactive)	> 100 µM (inactive)
Cn1c(=O)sc2cc(C(=S)N3CCCCC3)ccc21	96.2 µM (inactive)	> 100 µM (inactive)	> 100 µM (inactive)	56.4 µM (inactive)	> 100 µM (inactive)	93.8 µM	19.9 µM (inactive)	46.9 µM (inactive)	27.6 µM (inactive)	59.7 µM (inactive)	17.7 µM (inactive)	> 100 µM (inactive)	25.6 µM (inactive)	18.6 µM (inactive)	> 100 µM (inactive)		16.1 µM (inactive)		94.6 µM (inactive)	0.865 µM (active)
CC(=O)OCCn1c(Cc2ccc(C)cc2)nn(C(C)=O)c1=O	> 100 µM (inactive)	> 100 µM (inactive)	> 100 µM (inactive)	> 100 µM (inactive)	> 100 µM (inactive)	> 100 µM		> 100 µM (inactive)	> 100 µM (inactive)	> 100 µM (inactive)	> 100 µM (inactive)	> 100 µM (inactive)	> 100 µM (inactive)	> 100 µM (inactive)	> 100 µM (inactive)	> 100 µM (inactive)	> 100 µM (inactive)	> 100 µM (inactive)	> 100 µM (inactive)	> 100 µM (inactive)
O=c1[nH]c(=O)n(C2OC(CO)C(O)C(F)C2O)cc1F (stereo not given)	> 100 µM (inactive)	> 100 µM (inactive)	> 100 µM (inactive)	> 100 µM (inactive)	> 100 µM (inactive)	> 100 µM		> 100 µM (inactive)	0.0803 µM (active)	> 100 µM (inactive)	> 100 µM (inactive)	> 100 µM (inactive)	> 100 µM (inactive)	> 100 µM (inactive)	> 100 µM (inactive)	> 100 µM (inactive)		> 100 µM (inactive)	> 100 µM (inactive)	> 100 µM (inactive)
C[C@@H]1[C@@H](c2ccccc2)O[B-](c2ccccc2)(c2ccccc2)[N+]1(C)C	50.1 µM (inactive)	> 100 µM (inactive)	54.7 µM (inactive)	58.3 µM (inactive)	> 100 µM (inactive)	58.7 µM		48.3 µM (inactive)	> 100 µM (inactive)	67.8 µM (inactive)	66.1 µM (inactive)	> 100 µM (inactive)	> 100 µM (inactive)	41 µM (inactive)	34.5 µM (inactive)	58.2 µM (inactive)	> 100 µM (inactive)	> 100 µM (inactive)	22.8 µM (inactive)	78 µM (inactive)
Cc1ncc([N+](=O)[O-])n1CCNC(=O)CCCn1ccnc1[N+](=O)[O-]	> 100 µM (inactive)	> 100 µM (inactive)	> 100 µM (inactive)	> 100 µM (inactive)	> 100 µM (inactive)	> 100 µM	> 100 µM (inactive)	> 100 µM (inactive)	> 100 µM (inactive)	> 100 µM (inactive)	> 100 µM (inactive)	> 100 µM (inactive)	> 100 µM (inactive)	> 100 µM (inactive)	> 100 µM (inactive)		> 100 µM (inactive)	> 100 µM (inactive)	> 100 µM (inactive)	> 100 µM (inactive)

From ChEMBL document CHEMBL1201862, “PubChem BioAssay data set” (2004)
